Results: PubChem BioAssay (NCI)
Several values for one entry are separate records, joined by “and”; a condition that tells them apart may be missing. Equal entries are not always repeated.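 Results reflect a 48-hour exposure of cells in 96-well plates to compound at five concentrations. Abbreviation: GI50, concentration required for 50% inhibition of growth. Definition used: TGI = concentration required for complete inhibition of growth.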

Legend:
Assay in all cases: growth of human tumour cells (NCI), 48 h
[1] = system: OVCAR-5 ovarian
[2] = system: COLO 205 colon
[3] = system: OVCAR-4 ovarian
[4] = system: NCI/ADR-RES ovarian
[5] = system: PC-3 prostate
[6] = system: CCRF-CEM leukemia
[7] = system: SF-539 CNS
[8] = system: U251 CNS
[9] = system: HCT-15 colon
[10] = system: MDA-MB-435

Structure (SMILES)	GI50 [1]	TGI [1]	GI50 [2]	TGI [2]	GI50 [3]	TGI [3]	GI50 [4]	TGI [4]	GI50 [5]	TGI [5]	GI50 [6]	TGI [6]	GI50 [7]	TGI [7]	GI50 [8]	TGI [8]	GI50 [9]	TGI [9]	GI50 [10]	TGI [10]
COCCNCC(O)Cn1c2ccc(Cl)cc2c2cc(Cl)ccc21 (stereo unspecified)	2.15 µM	5.23 µM	2.08 µM	3.83 µM	2.01 µM	5.2 µM	2.39 µM	5.59 µM	1.75 µM	3.81 µM	1.92 µM	4.25 µM	1.8 µM	3.43 µM	1.94 µM	3.93 µM	2.06 µM	5 µM	1.7 µM	3.19 µM
O=S(=O)(Nc1ccc(-c2nc(-c3cccc(OCCN4CCOCC4)c3)c(-c3ccnc(Br)c3)[nH]2)cc1)c1ccccc1	5.99 µM	> 100 µM	3.54 µM	> 100 µM	4.16 µM	> 100 µM	4.18 µM	> 100 µM	2.4 µM	36.6 µM	2.89 µM	> 100 µM	3.68 µM	> 100 µM	2.92 µM	46 µM	1.74 µM	6.79 µM	2.93 µM	> 100 µM
CC1(C)CCC(S(=O)(=O)c2ccc3c(c2)/C(=N\O)c2cc(S(=O)(=O)N4CCC(O)(c5cccc(C(F)(F)F)c5)CC4)ccc2-3)CC1	0.0317 µM	0.148 µM	0.0208 µM	0.0455 µM	0.0251 µM	0.0744 µM	3.14 µM	–	0.0238 µM	0.0585 µM	0.0291 µM	0.0906 µM	0.0204 µM	0.0448 µM	0.02 µM	0.0384 µM	0.0694 µM	4.52 µM	0.0283 µM	0.122 µM
O=C(NNc1nc2cc(F)ccc2n2c(CN3CCOCC3)ccc12)c1ccccc1	0.474 µM	3.45 µM	0.261 µM	1.56 µM	0.152 µM	1.39 µM	0.211 µM	2.37 µM	0.339 µM	3.05 µM	0.0978 µM	4.44 µM	0.273 µM	1.39 µM	0.207 µM	2.19 µM	0.0577 µM	1.41 µM	0.603 µM	2.4 µM
CCOc1ccc(NC(=O)Nc2cc(C(C)C)ccc2C)cc1	11.9 µM	> 76 µM	15.3 µM	> 100 µM	3.33 µM	11.5 µM	6.96 µM	44.7 µM	11.4 µM	> 58 µM	> 25.5 µM	> 100 µM	4.39 µM	16.6 µM	5.89 µM	17.8 µM	28.7 µM	> 100 µM	17.6 µM	> 100 µM
CN(C(=O)c1ccc(F)cc1C(F)(F)F)C1CCN(c2nnc(-c3ccnn3C)c3ccccc23)CC1	> 100 µM	> 100 µM	32.9 µM	> 100 µM	20.9 µM	> 100 µM	30.9 µM	> 100 µM	33.3 µM	> 100 µM	31.6 µM	> 100 µM	> 100 µM	> 100 µM	59.3 µM	> 100 µM	39.9 µM	> 100 µM	26.6 µM	> 100 µM
COc1ccc(OC)c(/C=C/[N+](=O)[O-])c1	2.11 µM and 4.32 µM	4.45 µM and 9.01 µM	–	4.06 µM and 6.76 µM	–	8.89 µM and 8.72 µM	–	21 µM	2.53 µM and 12.4 µM	7.37 µM and 27.9 µM	1.18 µM	14.6 µM and 5.38 µM	–	13.8 µM and 10.4 µM	2.27 µM	8.86 µM and 7.37 µM	–	17.1 µM and 6.73 µM	–	7.68 µM
C[C@@H]1O[C@@H](O[C@H]2C[C@@H](O)[C@]3(CO)C4C(CC[C@]3(O)C2)[C@@]2(O)CC[C@H](C3=CC(=O)OC3)[C@@]2(C)C[C@H]4O)[C@H](O)[C@H](O)[C@H]1O (stereo partly specified)	0.0606 µM	0.127 µM	0.0747 µM	0.151 µM	0.0116 µM	0.0308 µM	0.0154 µM	0.0452 µM	0.0214 µM	0.113 µM	0.0168 µM	0.0808 µM	0.0185 µM	0.0599 µM	0.025 µM	0.0839 µM	0.0372 µM	0.114 µM	0.0595 µM	0.134 µM
OCC1SC(n2cnc3cncnc32)C(O)C1O (stereo unspecified)	> 100 µM	> 100 µM	> 100 µM	> 100 µM	> 100 µM	> 100 µM	> 100 µM	> 100 µM	> 100 µM	> 100 µM	> 100 µM	> 100 µM	> 100 µM	> 100 µM	> 100 µM	> 100 µM	> 100 µM	> 100 µM	> 100 µM	> 100 µM
Cn1ncc2cc(-c3cnc(N)c(Cl)c3N3CCC4(CCNC4=O)CC3)ccc21	> 100 µM	> 100 µM	11.9 µM	> 100 µM	38.9 µM	> 100 µM	32.8 µM	> 100 µM	42.1 µM	> 100 µM	36.9 µM	> 100 µM	14.1 µM	> 100 µM	43.7 µM	> 100 µM	22.7 µM	> 100 µM	45.4 µM	> 100 µM
COc1ccc(/C=C2/CN(C(=O)c3ccccc3F)C/C(=C\c3ccc(OC)cc3)C2=O)cc1	7.55 µM	28.8 µM	3.82 µM	12.3 µM	6.02 µM	> 100 µM	3.49 µM	82.5 µM	2.57 µM	8.87 µM	2.76 µM	> 100 µM	3.65 µM	14.6 µM	2.18 µM	5.14 µM	2.05 µM	6.62 µM	2.48 µM	9.93 µM
O=C(Cn1ccnc1[N+](=O)[O-])N(CCO)CCO	> 1250 µM	> 1250 µM	> 250 µM	> 1250 µM	> 1250 µM	> 1250 µM	> 1250 µM	> 1250 µM	–	> 250 µM	> 580 µM	> 580 µM	> 1250 µM	> 1250 µM	> 1250 µM	> 1250 µM	> 1250 µM	> 1250 µM	–	> 250 µM
COc1ccc(-c2nc(-c3nc4ccc(F)cc4[nH]3)cc3c2[nH]c2ccccc23)cc1	4.46 µM	> 100 µM	2.1 µM	4.71 µM	5.1 µM	> 100 µM	2.77 µM	> 100 µM	1.69 µM	5.71 µM	2.29 µM	25.6 µM	2.8 µM	9.33 µM	2.42 µM	7.26 µM	2.82 µM	> 100 µM	2.58 µM	13.4 µM
CN(C)c1c(Cl)c(=O)oc2c1ccc1nc(-c3ccccc3)sc12	–	> 100 µM	–	> 100 µM	–	> 100 µM	–	> 100 µM	–	> 100 µM	–	> 100 µM	–	> 100 µM	–	> 100 µM	–	> 100 µM	–	> 100 µM
Cc1c(Cl)ccc2c1NC(=O)C2(O)CC(=O)c1ccc(Cl)cc1Cl (stereo unspecified)	–	> 50 µM	–	> 50 µM	–	> 50 µM	–	> 50 µM	–	> 50 µM	–	22.4 µM	–	> 50 µM	–	> 50 µM	–	> 50 µM	–	> 50 µM
CS(=O)(=O)c1nccc(-c2c(-c3cccc(OCc4ccc(F)cc4)c3)nc3sccn23)n1	> 100 µM	> 100 µM	45 µM	> 100 µM	11.4 µM	> 100 µM	43.2 µM	> 100 µM	4.62 µM	> 28 µM	8.73 µM	> 100 µM	> 94 µM	> 100 µM	33.1 µM	> 100 µM	10.9 µM	> 100 µM	30.3 µM	> 100 µM
CC1=CC[C@@H]2[C@@H](CC[C@@]2(C)O)C(C)(C)[C@H]1CC[C@@H]1[C@@]2(C)CCC(=O)C(C)(C)O[C@@H]2CC[C@]1(C)O	–	> 100 µM	–	55.8 µM	–	> 100 µM	–	60.9 µM	–	> 100 µM	–	48 µM	–	36.5 µM	–	> 100 µM	–	34.3 µM	–	> 100 µM
O=S(=O)(c1cccc(C(F)(F)F)c1)N1c2ccccc2-n2cccc2C1c1cccnc1 (stereo unspecified)	–	> 75.1 µM	–	> 54.6 µM	–	> 48.4 µM	–	66.2 µM	–	> 52.6 µM	–	> 51.6 µM	–	> 60.9 µM	–	> 53.1 µM	–	> 91.4 µM	–	> 42.2 µM
C=C1C(=O)O[C@H]2[C@H]1CC/C(COC(=O)OCCCCCOC(=O)OC/C1=C/CC[C@@]3(C)O[C@H]3[C@H]3OC(=O)C(=C)[C@@H]3CC1)=C\CC[C@@]1(C)O[C@@H]21	0.581 µM	2.08 µM	0.199 µM	0.438 µM	0.683 µM	2.15 µM	2.34 µM	9.58 µM	1.83 µM	4.54 µM	0.321 µM	1.14 µM	0.61 µM	2.04 µM	1.31 µM	2.82 µM	0.252 µM	0.822 µM	0.527 µM	2.13 µM
